Reference: US6303638A, “Substituted pyridines as modulators of the mammalian neuronal nicotinic acetylcholine receptor” (The Regents of the University of California, priority 1999, dated 2001)
Where “and” joins values, the source holds several entries; their conditions need not be identical. Equal entries are not always repeated. Where two headings read alike, the source gives them in different places.

Key:
[1] = tested on: insect versus the mammalian nAChR; conditions: Kagabu et al. (1997); Chao et al. (1997); cited from earlier work
α4β2 nAChR = molecular target: T1, α4β2 nAChR (Rattus norvegicus, UniProt P09483+P12390); test: Inhibition of [3H](-)-nicotine binding to recombinant α4β2 nAChR
T1 construct: made in house; host or cells: Sf9 insect cells infected with each recombinant baculovirus stock; membrane preparation
T1 sequence (P09483 31-630): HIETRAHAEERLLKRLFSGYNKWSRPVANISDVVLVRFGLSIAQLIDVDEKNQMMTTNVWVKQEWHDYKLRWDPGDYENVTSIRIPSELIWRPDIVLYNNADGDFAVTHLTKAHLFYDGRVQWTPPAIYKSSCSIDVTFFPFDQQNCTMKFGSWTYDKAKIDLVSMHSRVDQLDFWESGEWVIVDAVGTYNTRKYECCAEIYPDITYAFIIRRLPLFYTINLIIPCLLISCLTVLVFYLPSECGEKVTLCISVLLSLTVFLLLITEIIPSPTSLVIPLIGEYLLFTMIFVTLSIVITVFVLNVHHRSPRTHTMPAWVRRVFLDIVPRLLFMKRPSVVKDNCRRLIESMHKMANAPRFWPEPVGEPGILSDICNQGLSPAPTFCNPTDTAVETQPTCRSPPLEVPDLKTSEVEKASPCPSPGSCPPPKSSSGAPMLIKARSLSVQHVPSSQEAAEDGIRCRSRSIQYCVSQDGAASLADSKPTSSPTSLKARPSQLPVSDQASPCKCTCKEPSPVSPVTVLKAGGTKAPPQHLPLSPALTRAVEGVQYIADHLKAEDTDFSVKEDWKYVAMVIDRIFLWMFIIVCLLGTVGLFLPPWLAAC
T1 sequence (P12390 25-500): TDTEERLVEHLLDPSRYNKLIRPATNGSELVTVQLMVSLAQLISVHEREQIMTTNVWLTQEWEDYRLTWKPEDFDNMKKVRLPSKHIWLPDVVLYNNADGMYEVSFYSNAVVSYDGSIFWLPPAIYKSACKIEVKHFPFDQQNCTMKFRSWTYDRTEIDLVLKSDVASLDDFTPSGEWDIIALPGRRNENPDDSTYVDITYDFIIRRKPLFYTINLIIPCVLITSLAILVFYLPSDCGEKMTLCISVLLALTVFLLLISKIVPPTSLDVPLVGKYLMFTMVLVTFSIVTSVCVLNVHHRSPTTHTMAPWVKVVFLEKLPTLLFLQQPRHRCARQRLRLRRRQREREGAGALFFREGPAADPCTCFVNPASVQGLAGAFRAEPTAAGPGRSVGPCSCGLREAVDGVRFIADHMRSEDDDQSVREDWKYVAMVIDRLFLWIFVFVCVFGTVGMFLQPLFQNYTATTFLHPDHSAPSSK
Procedure: Representative compounds of the invention were investigated by way of the experimental protocol described below.
Production of recombinant α4β2 nAChR:
Recombinant baculovirus stocks containing inserts for the rat α4 and β2 nAChR subunits were independently amplified as described by Wang et al. (1996) J. Neurosci. Res. 44:350-354. Production of the α4β2 nAChR was achieved by infection of Sf9 insect cells with each recombinant viral stock. Cells were harvested 48-72 h post infection by centrifugation for 10 min at 100 g, then washed in a phosphate-bufferedsaline, and homogenized in a small volume of buffer (20 mM Tris-HCl, pH 7.4, 118 mM NaCl, […], 2.5 mM CaCl2, 1.2 mM MgSO4, and 1.0 mM EDTA), followed by centrifugation for 10 min at 300 g. The final step was centrifugation of the supernatant at 37000 g. The membrane pellet was resuspended in buffer and adjusted to 20 mg of total protein per 100 mL. These nAChR preparations were used immediately for binding assays or stored as single experiment aliquots at -80° C.
Reactions were terminated by addition of 3 mL ice-cold 0.9% NaCl followed by rapid vacuum filtration through filtermat B glass fiber filters and two 3-mL washes on the filter. Filters were pre-soaked at least 60 min in 0.1% w/v polyethyleneimine to reduce non-specific binding. […] The concentration of test compounds for 50% inhibition (IC50) was determined by iterative non-linear least-squares regression using the SigmaPlot program (Jandel Scientific Software, San Rafael, Calif.). The data reported are means±standard deviations with four determinations or are individual values for two determinations.

humans [2] = conditions: taken orally; cited from earlier work
humans [3] = conditions: administered into the human blood stream, even in relatively small amounts; cited from earlier work
[4] = 1 nM [3H]nicotine, 30 min, 22° C., Sf9 cell membranes, individual values for two determinations, read-out: Inhibition of [3H](-)-nicotine binding to α4β2 nAChR IC50 (individual values for two determinations)
[5] = 1 nM [3H]nicotine, 30 min, 22° C., Sf9 cell membranes, means ± standard deviations, four determinations, read-out: Inhibition of [3H](-)-nicotine binding to α4β2 nAChR IC50

| SMILES | IC50 (α4β2 nAChR; [5]) | further results |
| --- | --- | --- |
| N=C1NCCN1Cc1ccc(Cl)nc1 [1-[(6-chloro-3-pyridinyl)methyl]-2-imidazolidine] | – | selectivity insect versus mammalian nAChR [1]: selective for the mammalian versus the insect nAChR |
| N=C1NCCCN1Cc1ccc(Cl)nc1 [Compound 1, 1-(6-Chloro-3-pyridinyl)methyl-2-iminotetrahydropyrimidine] | – | IC50 (α4β2 nAChR): 0.058 µM; IC50 (α4β2 nAChR; [4]): 0.063 µM |
| N=C1NCCCCN1Cc1ccc(Cl)nc1 [Compound 2, 1-[(6-Chloro-3-pyridinyl)methyl]-2-iminotetrahydrodiazepine] | 0.0028 ± 0.001 µM | – |
| N=C1SCCN1Cc1ccc(Cl)nc1 [Compound 3, 1-(^6 -Chloro-3-pyridinyl)methyl-2-iminothiazolidine] | 0.0023 ± 0.0003 µM | – |
| N=C1SCCCN1Cc1ccc(Cl)nc1 [Compound 4, 1-[(6-Chloro-3-pyridinyl)methyl]-2-iminotetrahydrothiazine] | 0.014 ± 0.004 µM | – |
| N=C1CCCN1Cc1ccc(Cl)nc1 [Compound 5, 1-(6-Chloro-3-pyridinyl)methyl-2-iminopyrrolidine] | 0.0035 ± 0.0007 µM | – |
| N=C1CCCCN1Cc1ccc(Cl)nc1 [Compound 6, 1-[(6-Chloro-3-pyridinyl)methyl]-2-iminopiperidine] | 0.011 ± 0.005 µM | – |
| N=C1OCCN1Cc1ccc(Cl)nc1 [Compound 7, 1-[(6-Chloro-3-pyridinyl)methyl]-2-imino-1,3-oxazolidine] | 0.0072 ± 0.002 µM | – |
| N=c1[nH]ccn1Cc1ccc(Cl)nc1 [Compound 8, 1-[(6-Chloro-3-pyridinyl)methyl]-2-iminoimidazole] | 0.023 ± 0.009 µM | – |
| N=c1sccn1Cc1ccc(Cl)nc1 [Compound 9, 1-(6-Chloro-3-pyridinyl)methyl-2-iminothiazole] | 0.00091 ± 0.0004 µM | – |
| C[N+](C)(C)Cc1ccc(Cl)nc1 [Compound 10, 1-(6-Chloro-3-pyridinyl)methyl-1,1,1-trimethylammonium chloride] | – | IC50 (α4β2 nAChR; [4]): 0.016 µM and 0.02 µM |
| CC[N+](CC)(CC)Cc1ccc(Cl)nc1 [Compound 11, 1-(6-Chloro-3-pyridinyl)methyl-1,1,1-triethylammonium chloride] | – | IC50 (α4β2 nAChR; [4]): 2.4 µM and 3.7 µM |
| Clc1ccc(CN2CCC2)cn1 [Compound 12, 1-(6-Chloro-3-pyridinyl)methylazetidine] | 0.016 ± 0.014 µM | – |
| Clc1ccc(CN2CCCC2)cn1 [Compound 13, 1-(^6 -Chloro-3-pyridinyl)methylpyrrolidine] | 0.0088 ± 0.0028 µM | – |
| Clc1ccc(CN2CCCCC2)cn1 [Compound 14, 1-(^6 -Chloro-3-pyridinyl)methylpiperidine] | 0.014 ± 0.003 µM | – |
| O=[N+]([O-])NC1=NCCN1Cc1ccc(Cl)nc1 [imidacloprid] | – | selectivity insect versus mammalian nAChR [1]: acts selectively at the insect versus the mammalian nAChR |
| CN1CCC[C@H]1c1cccnc1 [nicotine] | – | fatal oral dose (humans [2]): 250 to 350 mg; central and peripheral effects of nicotine (humans [3]): fever, increased heart rate, trembling, nausea, increased blood pressure and convulsions |
